According to patent US10556907B2 (AbbVie Inc., priority 2015, dated 2020):

Experiments:
Assay in all cases: Method 1: intracellular Ca2+ release (FLIPR, Calcium 5) in recombinant CHO-K1 cells
Assay type in all cases: cell-based
human S1PR5 receptor = molecular target: T1, human S1PR5 receptor (Homo sapiens, UniProt Q9H228); conditions: agonist potency, determined with method 1 (symbols A-D); read-out: S1P5 EC50 range
T1 construct: host or cells: CHO-K1
Method: (§1) Agonistic activity was measured using two different methods, described below.
(§2) Method 1. Intracellular Ca^2+ Release
(§3) Agonist potency and intrinsic activity was assessed by measurement of intracellular Ca^2+ release. Recombinant CHO-K1 cells (Euroscreen, Brussels, Belgium) expressing human S1PR5, S1PR1, S1PR3 or S1PR4 receptors, aequorin, and GTP binding protein Gq/i5 were cultured using a medium containing nutrient mixture F-12 Ham (Sigma-Aldrich) with 10% FBS, and 100 μg/mL gentamicin and equilibrated at 5% CO2.
(§4) 15.000 cells in 20 μL medium were seeded into Biocoat poly-D-Lysine coated 384 well plates (Becton Dickinson #35-6663) and grown to 95% confluency after 24 h.
(§5) Culture medium was replaced by an assay buffer consisting of HBBS with Ca^2+ and Mg^2+ (Invitrogen #14025-050), 20 mmol/L Hepes (Sigma-Aldrich #H-3375), 2.5 mmol/L probenecid (Sigma-Aldrich #P-8761, and 0.1% BSA (Sigma-Aldrich #A-7030) pH 7.4. The Calcium 5 no-wash FLIPR assay kit (Molecular Devices #5000625) was performed as described in the kit instructions. Cells were incubated with Calcium 5 dye for 1 h at 37° C., 5% CO2 in the dark. After 45 min adaptation to RT assessment of agonist stimulation of intracellular Ca^2+ release was performed by addition of test compounds at concentrations obtained by serial dilution. Phospho-fingolimod was used as positive control. Antagonists were pre-incubated for 10 min with cells before addition of the agonist (phospho-fingolimod at EC80). Measurements were performed using a fluorometric imaging plate reader FLIPR® tetra (Molecular Devices). Agonist at the human S1P receptors were characterized by deducing EC50 (potency) values from a nonlinear fit to the measured fluorescence raw data after normalization to the reference agonist (phospho-fingolimod) curve.

human S1PR3 receptor = molecular target: T2, human S1PR3 receptor (Homo sapiens, UniProt Q99500); conditions: (1): determined with method 1; read-out: S1P3 EC50
T2 construct: host or cells: CHO-K1
Method: as §1, §2, §3, §4, §5

human S1PR1 receptor = molecular target: T3, human S1PR1 receptor (Homo sapiens, UniProt P21453); conditions: (1): determined with method 1; read-out: S1P1 EC50
T3 construct: host or cells: CHO-K1
Method: as §1, §2, §3, §4, §5

T1 sequence (Q9H228 whole entry): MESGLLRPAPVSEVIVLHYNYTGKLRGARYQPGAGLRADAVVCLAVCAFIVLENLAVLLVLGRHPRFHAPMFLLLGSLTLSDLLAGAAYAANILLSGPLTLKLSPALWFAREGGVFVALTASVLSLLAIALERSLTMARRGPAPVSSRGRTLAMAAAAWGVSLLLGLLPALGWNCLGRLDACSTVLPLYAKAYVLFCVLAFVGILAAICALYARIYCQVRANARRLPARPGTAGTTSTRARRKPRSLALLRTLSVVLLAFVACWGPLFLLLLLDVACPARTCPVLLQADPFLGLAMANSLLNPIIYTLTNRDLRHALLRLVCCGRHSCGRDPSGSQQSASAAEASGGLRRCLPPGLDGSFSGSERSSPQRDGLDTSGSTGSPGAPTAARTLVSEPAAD
T2 sequence (Q99500 whole entry): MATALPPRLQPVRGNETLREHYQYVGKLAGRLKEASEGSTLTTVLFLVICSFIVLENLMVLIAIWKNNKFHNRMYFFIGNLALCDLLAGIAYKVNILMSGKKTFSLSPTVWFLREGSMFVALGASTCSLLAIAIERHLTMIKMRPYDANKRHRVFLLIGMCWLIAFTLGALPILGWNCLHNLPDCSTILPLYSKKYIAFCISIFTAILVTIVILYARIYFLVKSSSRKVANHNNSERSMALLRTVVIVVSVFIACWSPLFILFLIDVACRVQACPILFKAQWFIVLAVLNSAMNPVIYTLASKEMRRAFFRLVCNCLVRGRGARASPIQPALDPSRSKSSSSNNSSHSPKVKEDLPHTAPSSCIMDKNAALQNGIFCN
T3 sequence (P21453 whole entry): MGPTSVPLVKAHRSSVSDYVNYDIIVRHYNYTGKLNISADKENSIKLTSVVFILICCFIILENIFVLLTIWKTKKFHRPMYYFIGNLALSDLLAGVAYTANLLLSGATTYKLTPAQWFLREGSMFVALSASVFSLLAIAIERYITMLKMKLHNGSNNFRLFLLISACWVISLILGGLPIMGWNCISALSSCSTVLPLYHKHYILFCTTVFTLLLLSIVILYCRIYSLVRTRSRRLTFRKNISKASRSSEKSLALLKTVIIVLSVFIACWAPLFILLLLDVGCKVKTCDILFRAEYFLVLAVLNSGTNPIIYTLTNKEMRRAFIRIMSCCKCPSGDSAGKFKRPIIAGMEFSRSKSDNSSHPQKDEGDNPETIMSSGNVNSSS

| EC50 (human S1PR5 receptor) [nM] | EC50 (human S1PR3 receptor) [nM] | EC50 (human S1PR1 receptor) [nM] | SMILES |
| --- | --- | --- | --- |
| < 10 | > 1000 | < 1000 | Cc1cc(COc2ccc(-c3ncc4c(n3)CCN(CCC(=O)O)C4)cc2)cc(OC(F)(F)F)c1 [Compound 95, 3-(2-(4-((3-methyl-5-(trifluoromethoxy)benzyl)oxy)phenyl)-7,8-dihydropyrido[4,3-d]pyrimidin-6(5H)-yl)propanoic acid] |
| 1000 to 10000 | > 1000 | > 1000 | O=C(O)CCCN1Cc2cnc(-c3ccc(OCc4ccccc4)cc3)nc2C1 [Compound 99, 4-(2-(4-(benzyloxy)phenyl)-5H-pyrrolo[3,4-d]pyrimidin-6(7H)-yl)butanoic acid] |
| 1000 to 10000 | > 1000 | > 1000 | O=C(O)CCN1Cc2cnc(-c3ccc(OCc4ccccc4)cc3)nc2C1 [Compound 100, 3-(2-(4-(benzyloxy)phenyl)-5H-pyrrolo[3,4-d]pyrimidin-6(7H)-yl)propanoic acid] |
| 10 to 100 | > 1000 | < 1000 | CC(CN1CCc2nc(-c3ccc(OCc4ccccc4)cc3F)ccc2C1)C(=O)O (stereo not drawn) [Compound 102, 3-(2-(4-(benzyloxy)-2-fluorophenyl)-7,8-dihydro-1,6-naphthyridin-6(5H)-yl)-2-methylpropanoic acid] |
| 10 to 100 | > 1000 | > 1000 | CC(CN1CCc2nc(-c3ccc(OCc4ccccc4)c(F)c3)ccc2C1)C(=O)O (stereo not drawn) [Compound 103, 3-(2-(4-(benzyloxy)-3-fluorophenyl)-7,8-dihydro-1,6-naphthyridin-6(5H)-yl)-2-methylpropanoic acid] |
| 10 to 100 | > 1000 | > 1000 | CC(CN1CCc2nc(-c3ccc(OCc4ccc(F)cc4)c(Cl)c3)ccc2C1)C(=O)O (stereo not drawn) [Compound 104, 3-(2-(4-((4-fluorobenzyl)oxy)-3-chlorophenyl)-7,8-dihydro-1,6-naphthyridin-6(5H)-yl)-2-methylpropanoic acid] |
| 100 to 1000 | > 1000 | > 1000 | CC(CN1CCc2nc(-c3ccc(OCc4ccccc4F)c(Cl)c3)ccc2C1)C(=O)O (stereo not drawn) [Compound 105, 3-(2-(4-((2-fluorobenzyl)oxy)-3-chlorophenyl)-7,8-dihydro-1,6-naphthyridin-6(5H)-yl)-2-methylpropanoic acid] |
| 10 to 100 | > 1000 | > 1000 | CC(CN1CCc2nc(-c3ccc(OCc4ccccc4)c(Cl)c3)ccc2C1)C(=O)O (stereo not drawn) [Compound 106, 3-(2-(4-(benzyloxy)-3-chlorophenyl)-7,8-dihydro-1,6-naphthyridin-6(5H)-yl)-2-methylpropanoic acid] |
| 1000 to 10000 | > 1000 | > 1000 | CC(CN1CCc2nc(-c3cccc(OCc4ccccc4)c3)ccc2C1)C(=O)O (stereo not drawn) [Compound 107] |
| 100 to 1000 | > 1000 | > 1000 | CC(CN1CCc2nc(-c3ccc(OCc4ccccc4)cc3Cl)ccc2C1)C(=O)O (stereo not drawn) [Compound 108, 3-(2-(4-(benzyloxy)-2-chlorophenyl)-7,8-dihydro-1,6-naphthyridin-6(5H)-yl)-2-methylpropanoic acid] |
| < 10 | > 1000 | < 1000 | CC(CN1CCc2nc(-c3ccc(OCc4cccc(F)c4)cc3)ccc2C1)C(=O)O (stereo not drawn) [Compound 109, 3-(2-(4-((3-fluorobenzyl)oxy)phenyl)-7,8-dihydro-1,6-naphthyridin-6(5H)-yl)-2-methylpropanoic acid] |
| 100 to 1000 | > 1000 | > 1000 | Cc1cc(-c2ccc3c(n2)CCN(CC(=O)O)C3)ccc1OCc1ccccc1 [Compound 111, 2-(2-(4-(benzyloxy)-3-methylphenyl)-7,8-dihydro-1,6-naphthyridin-6(5H)-yl)acetic acid] |
| 100 to 1000 | > 1000 | > 1000 | Cc1cc(-c2ccc3c(n2)CCN(CC(=O)O)C3)ccc1OCc1ccc(C(F)(F)F)cc1 [Compound 112, 2-(2-(3-methyl-4-((4-(trifluoromethyl)benzyl)oxy)phenyl)-7,8-dihydro-1,6-naphthyridin-6(5H)-yl)acetic acid] |
